# Measurements published in ChEMBL document CHEMBL3885881, “DrugMatrix”.
# Species: Rattus norvegicus
# Experiment: DrugMatrix - Regimen: Daily Repeat
# Type: toxicity, organism-based, Sprague-Dawley
# Design: regimen Daily Repeat, gender Male, age 6-8 weeks
# Details: in vivo, po, route oral GAVAGE, vehicle 100 % WATER; for BASOPHIL / EOSINOPHIL / ERYTHROCYTE COUNT / HEMATOCRIT / HEMOGLOBIN / LEUKOCYTE COUNT / LYMPHOCYTE / MEAN CORPUSCULAR HEMOGLOBIN / MEAN CORPUSCULAR HEMOGLOBIN CONCENTRATION / MEAN CORPUSCULAR VOLUME / MONOCYTE / NEUTROPHIL / PLATELET COUNT: tissue Blood; for ALANINE AMINOTRANSFERASE / ALBUMIN / ALKALINE PHOSPHATASE / ASPARTATE AMINOTRANSFERASE / BLOOD UREA NITROGEN / CARBON DIOXIDE / CHLORIDE / CHOLESTEROL / CREATINE PHOSPHOKINASE / CREATININE / GLUCOSE / LACTATE DEHYDROGENASE / LIPASE / PHOSPHORUS / POTASSIUM / SODIUM / TOTAL BILIRUBIN / TOTAL PROTEIN / URIC ACID: tissue Plasma
# [1] = 0 mg/kg, 96 h, dose level Control, time 4 day
# [2] = 0 mg/kg, […], dose level Control, time 6 day
# [3] = 0 mg/kg, […], dose level Control, time 14 day
# [4] = […], 96 h, dose 1.6 mg/Kg, dose level High, time 4 day
# [5] = […], dose 1.6 mg/Kg, dose level High, time 6 day
# [6] = […], dose 1.6 mg/Kg, dose level High, time 14 day
structure (smiles),measurement,setting,value
O=[Se](=O)([O-])[O-].[Na+].[Na+] [SODIUM SELENATE],BASOPHIL,[1],0.47%
same,EOSINOPHIL,[1],0.58%
same,ERYTHROCYTE COUNT,[1],6.84 x10E6/uL
same,HEMATOCRIT,[1],44.27%
same,HEMOGLOBIN,[1],14.08 G/DL
same,LEUKOCYTE COUNT,[1],13.39 x10E3/uL
same,LYMPHOCYTE,[1],83.57%
same,MEAN CORPUSCULAR HEMOGLOBIN,[1],20.57 pg
same,MEAN CORPUSCULAR HEMOGLOBIN CONCENTRATION,[1],31.77 G/DL
same,MEAN CORPUSCULAR VOLUME,[1],64.68 fL
same,MONOCYTE,[1],1.92%
same,NEUTROPHIL,[1],12.95%
same,PLATELET COUNT,[1],1533.67 x10E3/uL
same,ALANINE AMINOTRANSFERASE,[1],28.17 u/L
same,ALBUMIN,[1],3.82 G/DL
same,ALKALINE PHOSPHATASE,[1],354.33 u/L
same,ASPARTATE AMINOTRANSFERASE,[1],73.83 u/L
same,BLOOD UREA NITROGEN,[1],16 mg/dL
same,CARBON DIOXIDE,[1],27.17 mmol/L
same,CHLORIDE,[1],104.83 MEQ/L
same,CHOLESTEROL,[1],83.33 mg/dL
same,CREATINE PHOSPHOKINASE,[1],288 u/L
same,CREATININE,[1],0.33 mg/dL
same,GLUCOSE,[1],181.33 mg/dL
same,LACTATE DEHYDROGENASE,[1],173.17 u/L
same,LIPASE,[1],17.67 u/L
same,PHOSPHORUS,[1],11.5 mg/dL
same,POTASSIUM,[1],6.8 MEQ/L
same,SODIUM,[1],147 MEQ/L
same,TOTAL BILIRUBIN,[1],0.35 mg/dL
same,TOTAL PROTEIN,[1],6.35 G/DL
same,URIC ACID,[1],1.55 mg/dL
same,BASOPHIL,[2],0.33%
same,EOSINOPHIL,[2],0.85%
same,ERYTHROCYTE COUNT,[2],6.98 x10E6/uL
same,HEMATOCRIT,[2],38.58%
same,HEMOGLOBIN,[2],14.25 G/DL
same,LEUKOCYTE COUNT,[2],11.01 x10E3/uL
same,LYMPHOCYTE,[2],85.07%
same,MEAN CORPUSCULAR HEMOGLOBIN,[2],20.47 pg
same,MEAN CORPUSCULAR HEMOGLOBIN CONCENTRATION,[2],31.45 G/DL
same,MEAN CORPUSCULAR VOLUME,[2],64.9 fL
same,MONOCYTE,[2],1.9%
same,NEUTROPHIL,[2],11.42%
same,PLATELET COUNT,[2],1289.67 x10E3/uL
same,BASOPHIL,[3],0.52%
same,EOSINOPHIL,[3],0.55%
same,ERYTHROCYTE COUNT,[3],7.72 x10E6/uL
same,HEMATOCRIT,[3],51.87%
same,HEMOGLOBIN,[3],15.32 G/DL
same,LEUKOCYTE COUNT,[3],16.2 x10E3/uL
same,LYMPHOCYTE,[3],85.13%
same,MEAN CORPUSCULAR HEMOGLOBIN,[3],19.85 pg
same,MEAN CORPUSCULAR HEMOGLOBIN CONCENTRATION,[3],29.52 G/DL
same,MEAN CORPUSCULAR VOLUME,[3],67.17 fL
same,MONOCYTE,[3],1.7%
same,NEUTROPHIL,[3],11.6%
same,PLATELET COUNT,[3],1104.17 x10E3/uL
same,ALANINE AMINOTRANSFERASE,[2],28.17 u/L
same,ALBUMIN,[2],3.78 G/DL
same,ALKALINE PHOSPHATASE,[2],385.33 u/L
same,ASPARTATE AMINOTRANSFERASE,[2],78 u/L
same,BLOOD UREA NITROGEN,[2],16.83 mg/dL
same,CARBON DIOXIDE,[2],26.67 mmol/L
same,CHLORIDE,[2],106.83 MEQ/L
same,CHOLESTEROL,[2],82.67 mg/dL
same,CREATINE PHOSPHOKINASE,[2],225.5 u/L
same,CREATININE,[2],0.27 mg/dL
same,GLUCOSE,[2],179.5 mg/dL
same,LACTATE DEHYDROGENASE,[2],98.33 u/L
same,LIPASE,[2],14.67 u/L
same,PHOSPHORUS,[2],12.28 mg/dL
same,POTASSIUM,[2],7.03 MEQ/L
same,SODIUM,[2],150.33 MEQ/L
same,TOTAL BILIRUBIN,[2],0.38 mg/dL
same,TOTAL PROTEIN,[2],6.45 G/DL
same,URIC ACID,[2],1.6 mg/dL
same,ALANINE AMINOTRANSFERASE,[3],37 u/L
same,ALBUMIN,[3],4.13 G/DL
same,ALKALINE PHOSPHATASE,[3],342 u/L
same,ASPARTATE AMINOTRANSFERASE,[3],71 u/L
same,BLOOD UREA NITROGEN,[3],16.5 mg/dL
same,CARBON DIOXIDE,[3],28.17 mmol/L
same,CHLORIDE,[3],104 MEQ/L
same,CHOLESTEROL,[3],70.67 mg/dL
same,CREATINE PHOSPHOKINASE,[3],287.67 u/L
same,CREATININE,[3],0.38 mg/dL
same,GLUCOSE,[3],150.17 mg/dL
same,LACTATE DEHYDROGENASE,[3],81.33 u/L
same,LIPASE,[3],16 u/L
same,PHOSPHORUS,[3],11.32 mg/dL
same,POTASSIUM,[3],6.22 MEQ/L
same,SODIUM,[3],147.33 MEQ/L
same,TOTAL BILIRUBIN,[3],0.43 mg/dL
same,TOTAL PROTEIN,[3],6.55 G/DL
same,URIC ACID,[3],1.38 mg/dL
same,BASOPHIL,[4],0.33%
same,EOSINOPHIL,[4],0.73%
same,ERYTHROCYTE COUNT,[4],6.6 x10E6/uL
same,HEMATOCRIT,[4],40.23%
same,HEMOGLOBIN,[4],12.93 G/DL
same,LEUKOCYTE COUNT,[4],11.54 x10E3/uL
same,LYMPHOCYTE,[4],85%
same,MEAN CORPUSCULAR HEMOGLOBIN,[4],19.6 pg
same,MEAN CORPUSCULAR HEMOGLOBIN CONCENTRATION,[4],32.13 G/DL
same,MEAN CORPUSCULAR VOLUME,[4],60.97 fL
same,MONOCYTE,[4],1.8%
same,NEUTROPHIL,[4],11.6%
same,PLATELET COUNT,[4],1460.67 x10E3/uL
same,ALANINE AMINOTRANSFERASE,[4],31.33 u/L
same,ALBUMIN,[4],3.73 G/DL
same,ALKALINE PHOSPHATASE,[4],296.67 u/L
same,ASPARTATE AMINOTRANSFERASE,[4],69.67 u/L
same,BLOOD UREA NITROGEN,[4],16 mg/dL
same,CARBON DIOXIDE,[4],24 mmol/L
same,CHLORIDE,[4],107.67 MEQ/L
same,CHOLESTEROL,[4],75.33 mg/dL
same,CREATINE PHOSPHOKINASE,[4],411.33 u/L
same,CREATININE,[4],0.4 mg/dL
same,GLUCOSE,[4],170.67 mg/dL
same,LACTATE DEHYDROGENASE,[4],107.33 u/L
same,LIPASE,[4],18 u/L
same,PHOSPHORUS,[4],11.1 mg/dL
same,POTASSIUM,[4],6.2 MEQ/L
same,SODIUM,[4],148.33 MEQ/L
same,TOTAL BILIRUBIN,[4],0.4 mg/dL
same,TOTAL PROTEIN,[4],6.2 G/DL
same,URIC ACID,[4],1.3 mg/dL
same,BASOPHIL,[5],0.27%
same,EOSINOPHIL,[5],0.3%
same,ERYTHROCYTE COUNT,[5],7.08 x10E6/uL
same,HEMATOCRIT,[5],44.53%
same,HEMOGLOBIN,[5],14.1 G/DL
same,LEUKOCYTE COUNT,[5],12.82 x10E3/uL
same,LYMPHOCYTE,[5],83.7%
same,MEAN CORPUSCULAR HEMOGLOBIN,[5],19.97 pg
same,MEAN CORPUSCULAR HEMOGLOBIN CONCENTRATION,[5],31.7 G/DL
same,MEAN CORPUSCULAR VOLUME,[5],62.9 fL
same,MONOCYTE,[5],2.23%
same,NEUTROPHIL,[5],13.07%
same,PLATELET COUNT,[5],1297.33 x10E3/uL
same,BASOPHIL,[6],0.42%
same,EOSINOPHIL,[6],0.92%
same,ERYTHROCYTE COUNT,[6],8.04 x10E6/uL
same,HEMATOCRIT,[6],52.44%
same,HEMOGLOBIN,[6],15.34 G/DL
same,LEUKOCYTE COUNT,[6],13.75 x10E3/uL
same,LYMPHOCYTE,[6],84.4%
same,MEAN CORPUSCULAR HEMOGLOBIN,[6],19.12 pg
same,MEAN CORPUSCULAR HEMOGLOBIN CONCENTRATION,[6],29.26 G/DL
same,MEAN CORPUSCULAR VOLUME,[6],65.28 fL
same,MONOCYTE,[6],2.18%
same,NEUTROPHIL,[6],11.62%
same,PLATELET COUNT,[6],1231.6 x10E3/uL
same,ALANINE AMINOTRANSFERASE,[5],33 u/L
same,ALBUMIN,[5],4.03 G/DL
same,ALKALINE PHOSPHATASE,[5],331 u/L
same,ASPARTATE AMINOTRANSFERASE,[5],80 u/L
same,BLOOD UREA NITROGEN,[5],16.33 mg/dL
same,CARBON DIOXIDE,[5],23.67 mmol/L
same,CHLORIDE,[5],108.67 MEQ/L
same,CHOLESTEROL,[5],74.67 mg/dL
same,CREATINE PHOSPHOKINASE,[5],413 u/L
same,CREATININE,[5],0.37 mg/dL
same,GLUCOSE,[5],182.67 mg/dL
same,LACTATE DEHYDROGENASE,[5],123 u/L
same,LIPASE,[5],8 u/L
same,PHOSPHORUS,[5],12.5 mg/dL
same,POTASSIUM,[5],6.73 MEQ/L
same,SODIUM,[5],151.67 MEQ/L
same,TOTAL BILIRUBIN,[5],0.37 mg/dL
same,TOTAL PROTEIN,[5],6.83 G/DL
same,URIC ACID,[5],1.77 mg/dL
same,ALANINE AMINOTRANSFERASE,[6],40.4 u/L
same,ALBUMIN,[6],4.2 G/DL
same,ALKALINE PHOSPHATASE,[6],262.8 u/L
same,ASPARTATE AMINOTRANSFERASE,[6],72.4 u/L
same,BLOOD UREA NITROGEN,[6],16.4 mg/dL
same,CARBON DIOXIDE,[6],27.4 mmol/L
same,CHLORIDE,[6],104.4 MEQ/L
same,CHOLESTEROL,[6],63.8 mg/dL
same,CREATINE PHOSPHOKINASE,[6],181 u/L
same,CREATININE,[6],0.42 mg/dL
same,GLUCOSE,[6],154.8 mg/dL
same,LACTATE DEHYDROGENASE,[6],91 u/L
same,LIPASE,[6],11.6 u/L
same,PHOSPHORUS,[6],11.26 mg/dL
same,POTASSIUM,[6],6.38 MEQ/L
same,SODIUM,[6],148.4 MEQ/L
same,TOTAL BILIRUBIN,[6],0.4 mg/dL
same,TOTAL PROTEIN,[6],6.72 G/DL
same,URIC ACID,[6],1.52 mg/dL
